For test [1], the target named is T1, human 5-hydroxytryptamine-2C (h5-HT2C) receptor (Homo sapiens, UniProt P28335).
T1 construct: expressed in transfected cells; host or cells: CHO (Chinese Hamster Ovary) cells; membranes
T1 sequence (P28335 33-458): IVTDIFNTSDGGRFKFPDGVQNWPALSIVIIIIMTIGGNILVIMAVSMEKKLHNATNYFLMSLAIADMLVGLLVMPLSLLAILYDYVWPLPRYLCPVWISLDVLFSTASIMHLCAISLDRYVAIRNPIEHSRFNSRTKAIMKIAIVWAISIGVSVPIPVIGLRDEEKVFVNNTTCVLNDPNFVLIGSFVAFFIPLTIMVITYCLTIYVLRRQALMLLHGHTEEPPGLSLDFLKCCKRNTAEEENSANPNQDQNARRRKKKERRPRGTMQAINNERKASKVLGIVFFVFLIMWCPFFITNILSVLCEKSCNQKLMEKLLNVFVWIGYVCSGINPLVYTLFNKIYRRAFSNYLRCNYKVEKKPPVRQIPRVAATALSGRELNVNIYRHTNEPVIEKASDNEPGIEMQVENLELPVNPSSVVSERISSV
Kind of test: [125I]DOI binding to membranes of CHO cells expressing the human 5-HT2C receptor. To be noted: [125I]DOI radioligand, CHO cell membranes, room temperature 60 min; read-out: 5-HT2C Affinity Ki.

Another test has as its target T2, human 5-HT2C receptor (Homo sapiens, UniProt P28335).
T2 sequence (P28335 33-458): T1 sequence (P28335 33-458)
The test can be described thus: 5-HT2C receptor-stimulated calcium mobilization (FLIPR) in CHO cells.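 On all read-outs here: Fluo-3-AM fluorescence read on FLIPR every 1 s, agonist added after 10 baseline reads, response taken as peak minus lowest raw fluorescence count.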 It counts as cell-based. The following applies: for Emax: CHO, percentage of the response observed with a maximally effective concentration of 5-HT, read-out: 5-HT2C Function Emax (%); for EC50: calcium mobilization, CHO cells stably expressing human 5-HT2C, read-out: 5-HT2C Function EC50. (In general: Calcium flux is commonly read through the fluorescence of an indicator in the cells.)

With `Cc1ccccc1-c1ccc(F)c2c1OC(CN)C2` (racemic) [Example 99, (±)-1-[4-fluoro-7-(2-methylphenyl)-2,3-dihydro-1-benzofuran-2-yl]methanamine], the inhibitory constant (Ki) – broadly, the equilibrium dissociation constant of an inhibitor or competing ligand from its target – in test [1] is 21 nM. Moreover, at human 5-HT2C receptor, the maximal effect (Emax) (as a rule, the maximal effect, on the per cent scale that the assay sets) worked out at 60% and the EC50 (usually the concentration needed to bring the measured effect to its halfway point) was 838 nM.

Consider `NCC1Cc2cc(F)cc(-c3ccccc3Cl)c2O1` (racemic) [Example 100, (±)-1-[7-(2-chlorophenyl)-5-fluoro-2,3-dihydro-1-benzofuran-2-yl]methanamine], for which the Ki in test [1] was 0.2 nM. Further, at human 5-HT2C receptor, the Emax worked out at 100% and the EC50 is 120 nM.

`NCC1Cc2cc(F)cc(-c3ccccc3)c2O1` (racemic) [Example 103, (±)-1-(5-fluoro-7-phenyl-2,3-dihydro-1-benzofuran-2-yl)methanamine]: in test [1], the Ki was determined as 7 nM. Also, on human 5-HT2C receptor, the Emax was 80% and the EC50 amounted to 996 nM.

For the molecule `Cc1ccccc1-c1cc(F)cc2c1OC(CN)C2` (racemic) [Example 104, (±)-1-[5-fluoro-7-(2-methylphenyl)-2,3-dihydro-1-benzofuran-2-yl]methanamine], in test [1], the Ki was determined as 1 nM. Also, at human 5-HT2C receptor, the Emax was determined as 100% and the EC50 stood at 241 nM.

For `NCC1Cc2cc(F)cc(-c3ccccc3F)c2O1` (racemic) [Example 107, (±)-1-[5-fluoro-7-(2-fluorophenyl)-2,3-dihydro-1-benzofuran-2-yl]methanamine], the Ki in test [1] came out at 1 nM. Moreover, at human 5-HT2C receptor, the Emax was 100% and the EC50 amounted to 93 nM.

On to `NCC1Cc2cc(F)cc(-c3ccccc3C(F)(F)F)c2O1` (racemic) [Example 108, (±)-1-{5-fluoro-7-[2-(trifluoromethyl)phenyl]-2,3-dihydro-1-benzofuran-2-yl}methanamine], for which, in test [1], the Ki was 4 nM. Also, on human 5-HT2C receptor, the maximal response (Emax) worked out at 95% and the EC50 was determined as 39 nM.

Consider `NCC1Cc2c(F)c(F)cc(-c3ccccc3)c2O1` (racemic) [Example 109, (±)-(4,5-difluoro-7-phenyl-2,3-dihydro-1-benzofuran-2-yl)methylamine], for which the Ki in test [1] was 25 nM. In addition, at human 5-HT2C receptor, the Emax was found to be 40% and the half-maximal effective concentration (EC50) is 3220 nM.

On to `Cc1ccccc1-c1cc(F)c(F)c2c1OC(CN)C2` (racemic) [Example 110, (±)-1-[4,5-difluoro-7-(2-methylphenyl)-2,3-dihydro-1-benzofuran-2-yl]methanamine], for which the Ki in test [1] is 9 nM. Moreover, on human 5-HT2C receptor, the maximal response (Emax) turned out to be 70% and the EC50 came to 1000 nM.

With `NCC1Cc2c(cccc2-c2ccccc2C(F)(F)F)O1` (racemic) [Example 122, (±)-1-{4-[2-(trifluoromethyl)phenyl]-2,3-dihydro-1-benzofuran-2-yl}methanamine], the Ki in test [1] came to 95 nM. Further, on human 5-HT2C receptor, the Emax is 70% and the EC50 was found to be 931 nM.

For the molecule `NCC1Cc2cccc(-c3c(F)cccc3F)c2O1` (racemic) [Example 139, (±)-1-[7-(2,6-difluorophenyl)-2,3-dihydro-1-benzofuran-2-yl]methanamine], the Ki in test [1] is 2.5 nM. On human 5-HT2C receptor, the Emax stood at 90% and the EC50 worked out at 6 nM.

Consider `NCC1Cc2cccc(-c3c(Cl)cccc3Cl)c2O1` (racemic) [Example 140, (±)-1-[7-(2,6-dichlorophenyl)-2,3-dihydro-1-benzofuran-2-yl]methanamine], for which the inhibition constant Ki in test [1] came out at 0.3 nM. On human 5-HT2C receptor, the Emax was 90% and the EC50 worked out at 0.72 nM.

As to `COc1ccc(-c2cccc3c2OC(CN)C3)c(OC)c1` (racemic) [Example 143, (±)-1-[7-(2,4-dimethoxyphenyl)-2,3-dihydro-1-benzofuran-2-yl]methanamine], the Ki in test [1] came to 6.3 nM. In addition, on human 5-HT2C receptor, the Emax turned out to be 90% and the EC50 was determined as 1 nM.

With `NCC1Cc2cccc(-c3ccc(F)cc3F)c2O1` (racemic) [Example 146, (±)-1-[7-(2,4-difluorophenyl)-2,3-dihydro-1-benzofuran-2-yl]methanamine], the Ki in test [1] came out at 2.4 nM. For the same molecule, on human 5-HT2C receptor, the Emax came out at 90% and the EC50 amounted to 5 nM.

`COc1cccc(-c2cccc3c2OC(CN)C3)c1OC` (racemic) [Example 155, (±)-{[7-(2,3-dimethoxyphenyl)-2,3-dihydro-1-benzofuran-2-yl]methyl}amine]: the Ki in test [1] was found to be 9 nM. For the same molecule, at human 5-HT2C receptor, the Emax came out at 90% and the EC50 is 43 nM.

On to `Cc1ccc(C)c(-c2cccc3c2OC(CN)C3)c1` (racemic) [Example 161, (±)-{[7-(2,5-dimethylphenyl)-2,3-dihydro-1-benzofuran-2-yl]methyl}amine], for which the Ki in test [1] turned out to be 8 nM. For the same molecule, on human 5-HT2C receptor, the Emax was 90% and the concentration giving a half-maximal response (EC50) stood at 32 nM.

In the case of `COc1ccc(OC)c(-c2cccc3c2OC(CN)C3)c1` (racemic) [Example 162, (±)-{[7-(2,5-dimethoxyphenyl)-2,3-dihydro-1-benzofuran-2-yl]methyl}amine], the Ki in test [1] stood at 13 nM. Besides, at human 5-HT2C receptor, the maximum response (Emax) amounted to 100% and the 50% effective concentration (EC50) was found to be 24 nM.

With `NCC1Cc2cccc(-c3cc(Cl)ccc3Cl)c2O1` (racemic) [Example 163, (±)-{[7-(2,5-dichlorophenyl)-2,3-dihydro-1-benzofuran-2-yl]methyl}amine], in test [1], the Ki amounted to 0.23 nM. On human 5-HT2C receptor, the Emax is 90% and the half-maximal effective concentration (EC50) is 2 nM.

For the molecule `NCC1Cc2cccc(-c3c(Cl)cc(Cl)cc3Cl)c2O1` (racemic) [Example 166, (±)-{[7-(2,4,6-trichlorophenyl)-2,3-dihydro-1-benzofuran-2-yl]methyl}amine], the Ki in test [1] came out at 8 nM. For the same molecule, at human 5-HT2C receptor, the Emax was 90% and the EC50 came to 0.2 nM.

With `Cc1cc(Cl)ccc1-c1cccc2c1OC(CN)C2` (racemic) [Example 167, (±)-{[7-(4-chloro-2-methylphenyl)-2,3-dihydro-1-benzofuran-2-yl]methyl}amine], the Ki in test [1] was 3.1 nM. Moreover, at human 5-HT2C receptor, the Emax came to 90% and the EC50 was found to be 21 nM.

As for `Cc1ccc(Cl)cc1-c1cccc2c1OC(CN)C2` (racemic) [Example 168, (±)-{[7-(5-chloro-2-methylphenyl)-2,3-dihydro-1-benzofuran-2-yl]methyl}amine], in test [1], the Ki came to 2 nM. Further, at human 5-HT2C receptor, the Emax was 100% and the EC50 is 1 nM.

For the molecule `COc1ccc(Cl)cc1-c1cccc2c1OC(CN)C2` (racemic) [Example 169, (±)-{[7-(5-chloro-2-methoxyphenyl)-2,3-dihydro-1-benzofuran-2-yl]methyl}amine], in test [1], the Ki was determined as 14 nM. Further, on human 5-HT2C receptor, the Emax came to 100% and the EC50 amounted to 50 nM.

For `NCC1Cc2cccc(-c3cccnc3)c2O1` (racemic) [Example 170, (±)-[(7-pyridin-3-yl-2,3-dihydro-1-benzofuran-2-yl)methyl]amine], in test [1], the Ki came out at 3.3 nM. Moreover, at human 5-HT2C receptor, the Emax was found to be 90% and the concentration giving a half-maximal response (EC50) was determined as 14 nM.

Regarding `COc1ccccc1-c1cc(F)cc2c1OC(CN)C2` (racemic) [Example 195, (±)-{[5-fluoro-7-(2-methoxyphenyl)-2,3-dihydro-1-benzofuran-2-yl]methyl}amine], the Ki in test [1] turned out to be 0.48 nM. At human 5-HT2C receptor, the Emax stood at 80% and the EC50 was 9 nM.

Values taken from patent US7435837B2, “Dihydrobenzofuranyl alkanamine derivatives and methods for using same” (Wyeth, priority 2003, dated 2008).
